Assay results: PMC9120013, “Ribosome inhibition by C9ORF72-ALS/FTD-associated poly-PR and poly-GR proteins revealed by cryo-EM” (Nature Communications, 2022)

What was measured:
[1] = test system: ribosomes on endogenous globin mRNAs in RRL; test: Polysome profiling of RRL translating endogenous mRNA; format: biochemical, rabbit; settings: 4 μM PR20, 4 μM GR20, 1 mM GDPCP; 5 min
Procedure: Polysome profiles were obtained using RRL untreated with nuclease, so that it contained endogenous mRNA. 100 μl reactions containing 50% RRL (Green Hectare) 30 μM hemin (Sigma), 75 mM KCl, 0.5 mM MgCl2, 1 mM ATP, 0.2 mM GTP, 2.1 mg/ml creatine phosphate, 30 μM of L-amino acid mix, 15 mg/ml yeast tRNA, 6 mM BME and, when appropriate, translation inhibitors (4 μM PR20, 4 μM GR20, cycloheximide, 40 μM harringtonine, or 1 mM GDPCP with 1 mM MgCl2) were assembled on ice. To start translation, the reactions were warmed in a heat block at either 30 °C or 37 °C as noted. After 5 min, reactions were terminated by addition of 100 μl of ice-cold Stop Buffer (50 mM Hepes-KOH pH 7.4, 150 mM KOAc, 10 mM Mg(OAc)2, and 200 μg/ml cycloheximide). The stopped reactions were applied to 10–50% sucrose gradients in Gradient Buffer (50 mM Hepes-KOH pH 7.4, 150 mM KOAc, 10 mM Mg(OAc)2, 2 mM DTT, and 100 μg/ml cycloheximide) and spun in an SW-41 rotor (Beckman Coulter) at 197,568xg (avg) for 2 h at 4 °C. Gradients were pumped on a Gradient Station (BioComp Instruments) at a pump rate of 0.29 mm/min and the absorbance at 254 nm was measured by an Econo UV monitor (Biorad) zeroed with 10% sucrose-gradient buffer. The traces were output as CSV files and imported into GraphPad Prism, where the 80S peaks were aligned. Controls were highly reproducible day-to-day. Each experimental condition is shown compared to concurrent, uninhibited control.

[2] = test system: ribosomes on endogenous beta-globin mRNA in RRL; test: Toeprinting of 80S and 4-5-mer polysome fractions on beta-globin mRNA; format: biochemical, rabbit; settings: for normalized ratio START to CDS, MEAN: 4-5-mer, primer B, mean of ten 20 bp windows
Procedure: Toeprinting analyses were carried out similarly to those in refs. [51],[74], using 80S and polysome (4–5-some) fractions collected from polysome profiles as described in “Polysome Profiles” except that reactions were doubled in size (200 μL), performed at 37 °C, and were stopped with ice-cold 1xAMV Buffer (50 mM Tris-HCl pH 8.3, 50 mM KCl, 5 mM MgCl2) with 200 μg/ml cycloheximide before being separated on at 10–35% sucrose gradient in 1xAMV buffer with 0.5 mM spermidine and 1 mM DTT. 600 μl of each fraction (80S or 4–5-mer) was supplemented with 10 mM DTT. Then 10 U of AMV reverse transcriptase (Promega), 120 nmol dNTPs, and 120 pmol of a 5'[6-carboxyfluorescein (FAM)]-labeled primer (IDT-DNA) were added. Two primers specific to the endogenous beta-globin mRNA in RRL were used in separate reactions: 5′-(FAM)-GGACTCGAAGAACCTCTG (as in ref. [74]) annealed 136 nucleotides downstream of the AUG or 5′-(FAM)-[…] annealed to the end of the 3'-UTR. Primers were extended at 37 °C for 30 min, and then the reaction were extracted in 1:1 phenol:chloroform, supplemented with 1/10 volume of 3 M sodium acetate pH 5.2, and precipitated with 2.5 volumes of 100% ethanol. Pellets were resuspended in 10 μl of deionized formamide (Applied Biosystems) with 1/20 volume of a 35-500 nucleotide orange-dye labeled DNA size standard (MCLab) and loaded onto a 96-well plate. The samples were sent for fragment analysis by capillary electrophoresis to the UMass Chan Medical School Molecular Biology Core Laboratory using an ABI3730XL DNA Fragment Analyzer with capillaries loaded with POP-7 polymer and with an injection voltage of 12.5 kV. Data collection was performed with GeneMapper software (ABI). Data were exported as.fsa files and were analyzed (aligning to ladder and background correction) in GeneMarker 3.0.1 software (SoftGenetics) running in demo mode. Screen captures of traces were taken and traces were integrated using the “Quantification” feature and manually adjusting sliders to include the desired nucleotide range.

[3] = test system: translation in E. coli cell lysates; test: Nanoluciferase translation in E. coli cell lysate (NEBExpress); format: biochemical; settings: 1 μl of 200 μM stock in 10-μl reaction
Procedure: E. coli cell lysates (NEBExpress, NEB) were used to investigate bacterial translation inhibition by GR20 and PR20. We monitored the translation of an in vitro transcribed mRNA encoding a Shine-Dalgarno sequence preceding the nanoluciferase (Promega) open reading frame. The mRNA was prepared by in vitro transcription of a PCR-template obtained by amplifying the nanoluciferase open reading frame from the plasmid described in reference with the following primers: T7 + SD-forward: […], based on the pet28a+ plasmid and reverse: […]. […] Then 1 μl of water or different concentrations (10-100 μM) of PR20 or GR20 or 200 μM erythromycin were added and the plate was incubated at 37 °C for 5 min inside of an Infinite m1000 pro microplate reader (Tecan). Next, the nanoluciferase mRNA was added to the final concentration of 20 ng/μl in a 10-μl reaction. Translation reactions were incubated at 37 °C for 20 min, luminescence of the samples was continuously measured by the microplate reader to record the time course of protein synthesis. Time progress curves, obtained in the experiments, were processed in MS Excel, and the rate of change of the relative light units between 100 and 200 s was measured, the mean and SEM of three experiments is reported in column graph in Supplementary Fig. 2a.

[4] = test system: E. coli 70S ribosomes; test: Erythromycin competition in the puromycin assay on 70S ribosomes; format: biochemical; settings: for fMet-puromycin formed: 20 μM erythromycin and/or 2 μM PR20, 30 nM 70S, quenched at 300 s
Procedure: The assay was performed as described above for the puromycin kinetics, except that the 70S ribosomes were pre-incubated with 22 μM erythromycin for 5 min prior to adding PR20. The stock solution of erythromycin contained 2 mM erythromycin in ethanol, so the control reaction (70S with no erythromycin) and the reactions with erythromycin were prepared to contain the same amount of ethanol (1%). The final concentrations after addition of puromycin were: 30 nM 70S, 66 nM [^35S]-fMet-tRNA^fMet, 1 μM mRNA, 2 μM PR20 (no PR20 in the control reaction), 20 μM erythromycin (or no erythromycin in a control reaction), 50 µM puromycin (in 20 mM Tris-acetate (pH 7.0), 100 mM NH4OAc, 12 mM Mg(OAc)2 and 1% ethanol). Samples were quenched at 300 s when the uninhibited reaction had reached a plateau.

[5] = test system: translation; settings: even at 100 µM; cited from earlier work
Source text: (§1) This work uncovers how the toxic arginine-containing DPR proteins associated with C9ORF72-ALS/FTD inhibit translation. […] Poly-PR and poly-GR binding to large subunits and assembled 80S ribosomes would compete with the binding of initiator Met-tRNA or elongator tRNAs, and strongly interfere with peptidyl transfer, consistent with transl ...

[6] = even at 100 µM; cited from earlier work
Source text: as §1

[7] = biological target: Escherichia coli 70S ribosome (E. coli)
[8] = biological target: Oryctolagus cuniculus (rabbit) 80S ribosome (rabbit (Oryctolagus cuniculus)) (UniProt G1SVW5)
[9] = biological target: Oryctolagus cuniculus (rabbit) 80S ribosome (rabbit (Oryctolagus cuniculus)) (UniProt G1SVW5); remark: listed apart in the source

## Nc1nc2c(ncn2[C@@H]2O[C@H](COP(=O)(O)OP(=O)(O)CP(=O)(O)O)[C@@H](O)[C@H]2O)c(=O)[nH]1 [GDPCP]
[1]
  polysome profile, half-mer peaks: increase in half-mer peaks
[2]
  site of ribosome accumulation, toe-printing of polysome fractions: accumulate within the open reading frame
[2]; 80S fraction, primer A, Fig. 2f independent repeat
  Ratio (START to CDS): 1.314
[2]; 80S fraction, primer A, Fig. 2f independent repeat, no inhibitor = 1
  Normalized ratio START/ORF: 0.4872
[2]; Fig. 2g
  normalized ratio START to CDS, MEAN: 0.7887
[2]; Fig. 2h independent repeat
  normalized ratio START to CDS, MEAN: 0.4286

## CC[C@H]1OC(=O)[C@H](C)[C@@H](O[C@H]2C[C@@](C)(OC)[C@@H](O)[C@H](C)O2)[C@H](C)[C@@H](O[C@@H]2O[C@H](C)C[C@H](N(C)C)[C@H]2O)[C@](C)(O)C[C@@H](C)C(=O)[C@H](C)[C@@H](O)[C@]1(C)O [erythromycin]
[3]
  effect on nanoluciferase translation in E. coli cell extracts: Inhibition of nanoluciferase translation
[4]; first column (replicate 1)
  fMet-puromycin formed: 1468
[4]; second column (replicate 2)
  fMet-puromycin formed: 1479
[4]; 20 μM erythromycin, 2 μM PR20
  effect of erythromycin preincubation on inhibition by PR20: prevents the inhibitory action of PR20

## GRKKRRQRRRPPQ [TAT, arginine-rich polypeptide]
[5]
  translation inhibition: not to cause translation inhibition
[6]
  cell death: not to cause translation inhibition or cell death

## PR20 (poly-proline-arginine, 20 repeats) (peptide)
[7]
  apparent inhibition constant (Ki) of peptidyl transfer from [35S]-fMet-tRNAfMet to puromycin on E. coli 70S ribosomes: 0.044 µM
[8]
  concentration at which inhibition of peptidyl transfer to puromycin begins on purified rabbit 80S ribosomes: 100 nM
[9]
  IC50 of translation of nanoluciferase mRNA in 33% rabbit reticulocyte lysate: 0.325 µM
  IC50 of translation of nanoluciferase mRNA in 50% rabbit reticulocyte lysate: 0.84 µM

## PR40 (poly-proline-arginine, 40 repeats) (peptide)
[7]
  apparent inhibition constant (Ki) of peptidyl transfer to puromycin on E. coli 70S ribosomes: < 0.03 µM
[8]
  apparent inhibition constant (Ki) of peptidyl transfer to puromycin on purified rabbit 80S ribosomes: < 0.03 µM

## RRRRNRTRRNRRRVR [FHV, arginine-rich polypeptide]
[5]
  translation inhibition: not to cause translation inhibition
[6]
  cell death: not to cause translation inhibition or cell death

## RRRRRRRRRRRR [R12, arginine-rich polypeptide]
[5]
  translation inhibition: not to cause translation inhibition
[6]
  cell death: not to cause translation inhibition or cell death
